From ChEMBL document CHEMBL4392882, “Glycosidic Acids with Unusual Aglycone Units from Convolvulus arvensis” (J Nat Prod, 2019)
Activity calls are given as the source filed them.

Tests used:
Format in all cases: functional, cell-based
Bel-7402 = test: Cytotoxicity in human Bel7402 cells assessed as reduction in cell viability up to 50 uM by MTT assay
MCF7 [1] = test: Inhibition of cell migration of human MCF7 cells up to 50 uM by wound healing assay
HeLa = test: Cytotoxicity in human HeLa cells assessed as reduction in cell viability up to 50 uM by MTT assay
A549 = test: Cytotoxicity in human A549 cells assessed as reduction in cell viability up to 50 uM by MTT assay
MCF7 [2] = test: Cytotoxicity in human MCF7 cells assessed as reduction in cell viability up to 50 uM by MTT assay

CCCCCC[C@@H](CCCCCCCCCC(=O)O)O[C@@H]1O[C@H](C)[C@H](O)[C@H](O)[C@H]1O[C@@H]1O[C@H](CO)[C@@H](O)[C@H](O[C@@H]2O[C@H](CO)[C@@H](O[C@@H]3O[C@H](CO[C@@H]4O[C@H](C)[C@H](O)[C@H](O)[C@H]4O)[C@@H](O)[C@H](O)[C@H]3O)[C@H](O)[C@H]2O)[C@H]1O[C@@H]1O[C@@H](C)[C@H](O)[C@@H](O)[C@H]1O
inactive: Activity (Bel-7402) | inhibition (MCF7 [1]) | Activity (HeLa) | Activity (A549) | Activity (MCF7 [2])

CCCCC[C@@H](CCCCCCCCCC(=O)O)O[C@@H]1O[C@H](C)[C@H](O)[C@H](O)[C@H]1O[C@@H]1O[C@H](CO)[C@@H](O)[C@H](O[C@@H]2O[C@H](CO[C@@H]3O[C@H](CO)[C@@H](O[C@@H]4O[C@H](CO[C@@H]5O[C@H](C)[C@H](O)[C@H](O)[C@H]5O)[C@@H](O)[C@H](O)[C@H]4O)[C@H](O)[C@H]3O)[C@@H](O)[C@H](O)[C@H]2O)[C@H]1O[C@@H]1O[C@@H](C)[C@H](O)[C@@H](O)[C@H]1O
inactive: Activity (Bel-7402) | inhibition (MCF7 [1]) | Activity (HeLa) | Activity (A549) | Activity (MCF7 [2])

CCCCC[C@@H](CCCCCCCCCC(=O)O)O[C@@H]1O[C@H](C)[C@H](O)[C@H](O)[C@H]1O[C@@H]1O[C@H](CO)[C@@H](O)[C@H](O[C@@H]2O[C@H](CO)[C@@H](O[C@@H]3O[C@H](CO[C@@H]4O[C@H](C)[C@H](O)[C@H](O)[C@H]4O)[C@@H](O)[C@H](O)[C@H]3O)[C@H](O)[C@H]2O)[C@H]1O[C@@H]1O[C@@H](C)[C@H](O)[C@@H](O)[C@H]1O
inactive: Activity (Bel-7402) | inhibition (MCF7 [1]) | Activity (HeLa) | Activity (A549) | Activity (MCF7 [2])

CCCCC[C@@H](CCCCCCCCCC(=O)O)O[C@@H]1O[C@H](C)[C@H](O)[C@H](O)[C@H]1O[C@@H]1O[C@H](CO)[C@@H](O)[C@H](O[C@@H]2O[C@H](CO[C@@H]3O[C@H](CO)[C@@H](O[C@@H]4O[C@H](CO)[C@@H](O)[C@H](O)[C@H]4O)[C@H](O)[C@H]3O)[C@@H](O)[C@H](O)[C@H]2O)[C@H]1O[C@@H]1O[C@@H](C)[C@H](O)[C@@H](O)[C@H]1O
inactive: Activity (Bel-7402) | inhibition (MCF7 [1]) | Activity (HeLa) | Activity (A549) | Activity (MCF7 [2])

CCCCCC[C@@H](CCCCCCCCCC(=O)O)O[C@@H]1O[C@H](C)[C@H](O)[C@H](O)[C@H]1O[C@@H]1O[C@H](CO)[C@@H](O)[C@H](O[C@@H]2O[C@H](CO[C@@H]3O[C@H](CO)[C@@H](O[C@@H]4O[C@H](CO[C@@H]5O[C@H](C)[C@H](O)[C@H](O)[C@H]5O)[C@@H](O)[C@H](O)[C@H]4O)[C@H](O)[C@H]3O)[C@@H](O)[C@H](O)[C@H]2O)[C@H]1O[C@@H]1O[C@@H](C)[C@H](O)[C@@H](O)[C@H]1O
inactive: Activity (Bel-7402) | inhibition (MCF7 [1]) | Activity (HeLa) | Activity (A549) | Activity (MCF7 [2])

CCCCCC[C@@H](CCCCCCCCCC(=O)O)O[C@@H]1O[C@H](C)[C@H](O)[C@H](O)[C@H]1O[C@@H]1O[C@H](CO)[C@@H](O)[C@H](O[C@@H]2O[C@H](CO[C@@H]3O[C@H](CO)[C@@H](O[C@@H]4O[C@H](CO)[C@@H](O)[C@H](O)[C@H]4O)[C@H](O)[C@H]3O)[C@@H](O)[C@H](O)[C@H]2O)[C@H]1O[C@@H]1O[C@@H](C)[C@H](O)[C@@H](O)[C@H]1O
inactive: Activity (Bel-7402) | inhibition (MCF7 [1]) | Activity (HeLa) | Activity (A549) | Activity (MCF7 [2])
